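Method: 48-hour compound exposure of cells in 96-well plates, five concentrations, linear interpolation of endpoints. GI50 marks 50% less growth. TGI is the concentration that stops growth completely.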
Experiments:
Assay in all cases: NCI anticancer screen, dose series, 48 h
HL-60(TB) leukemia = tested on: HL-60(TB) leukemia
K-562 leukemia = tested on: K-562 leukemia
OVCAR-8 ovarian = tested on: OVCAR-8 ovarian
RPMI-8226 leukemia = tested on: RPMI-8226 leukemia
TK-10 renal = tested on: TK-10 renal
UACC-257 melanoma = tested on: UACC-257 melanoma

Structure (SMILES) | TGI (HL-60(TB) leukemia) | TGI (K-562 leukemia) | TGI (OVCAR-8 ovarian) | TGI (RPMI-8226 leukemia) | TGI (TK-10 renal) | TGI (UACC-257 melanoma) | GI50 (HL-60(TB) leukemia) | GI50 (K-562 leukemia) | GI50 (OVCAR-8 ovarian) | GI50 (TK-10 renal) | GI50 (UACC-257 melanoma)
COc1cc(CNC(=O)CCCCCCCCCCSC#N)ccc1O | 28.9 µM | 88.5 µM | 43.2 µM | 59.5 µM | 44 µM | 41.1 µM | – | – | – | – | –
O=[N+]([O-])C(=C(\Cl)NCCO)/C(Cl)=C(/Cl)Br | 2.48 µM | 2.97 µM | 7.31 µM | 6.14 µM | 4.91 µM | 4.4 µM | – | – | – | – | –
COC(=O)CC(c1ccccc1)C(C#N)(OP1(=O)OC(c2ccccc2)C(C)N1C)c1ccccc1 (stereo not given) | 72.6 µM | > 100 µM | > 100 µM | > 100 µM | > 100 µM | > 100 µM | – | – | – | – | –
COc1cc(/C=C2\CCCC3=C2N=C2SC=NN2C3c2cc(OC)c(OC)c(OC)c2)cc(OC)c1OC (stereo not given) | 9.49 µM | > 100 µM | 29.8 µM | – | 47.6 µM | 26.1 µM | 2930 nM | 3.08 µM | 3.23 µM | 4.19 µM | 2640 nM
O=C1CN2CCN(CC2)CC(=O)Nc2ccc(cc2)S(=O)(=O)c2ccc(cc2)NC(=O)CN2CCN(CC2)CC(=O)Nc2ccc(cc2)S(=O)(=O)c2ccc(cc2)N1 | > 100 µM | > 100 µM | > 100 µM | > 80.8 µM | > 100 µM | > 100 µM | – | – | – | – | –
O=C1C=C(NCCc2ccc(O)cc2)C(=O)C=C1NCCc1ccc(O)cc1 | 71.2 µM | > 100 µM | > 100 µM | > 100 µM | > 100 µM | > 100 µM | – | – | – | – | –
COc1ccc([C@H]2C=C(c3cc(F)c(Cl)cc3Cl)N=c3s/c(=C\c4ccc(-c5ccc(Cl)cc5Cl)o4)c(=O)n32)cc1 | – | > 100 µM | > 100 µM | > 100 µM | > 100 µM | > 100 µM | – | – | – | – | –
FC(F)(F)c1ccc(N=NN2CCCC2)cc1 | > 100 µM | > 100 µM | – | > 100 µM | > 100 µM | > 100 µM | – | – | – | – | –
COc1ccc(/C=C/C(=O)N[C@@H]2C(=O)N3[C@@H]2SC(C)(C)[C@@H]3C(=O)O)cc1OC | > 100 µM | > 100 µM | > 100 µM | > 100 µM | > 100 µM | > 100 µM | – | – | – | – | –
CCCCCC(=O)OC[n+]1ccc(-c2c(COC(=O)NC(C)C)c(COC(=O)NC(C)C)c3n2CCC3)cc1 | 96.8 µM | > 100 µM | > 100 µM | > 100 µM | > 100 µM | > 100 µM | – | – | – | – | –
CN1CCN2CCN(C)CCN(CC1)CC2 | > 100 µM | > 100 µM | > 100 µM | > 100 µM | > 100 µM | > 100 µM | – | – | – | – | –
O=C1CSC2(CC(/C=C/c3ccccc3[N+](=O)[O-])=NN2c2cccc(S(=O)(=O)O)c2)N1c1nc2ccccc2s1 (stereo not given) | 63.7 µM | 63.3 µM | 28.6 µM | 43.5 µM | 29.4 µM | > 75 µM | – | – | – | – | –
O=C(O)COc1cccc2ccccc(=O)c12 | > 100 µM | > 100 µM | > 100 µM | – | > 100 µM | > 100 µM | – | – | – | – | –
O=C(O)Cc1ccc(-n2nnc3c(=O)[nH][nH]c(=O)c32)cc1 | > 100 µM | > 100 µM | > 100 µM | > 100 µM | > 100 µM | > 100 µM | – | – | – | – | –

From PubChem BioAssay (NCI)
